Source: patent US9981986B2, “Antimicrobial compounds” (OXFORD UNIVERSITY INNOVATION LIMITED, priority 2012, dated 2018)
In brackets after ≈: the same amount, converted by molar mass.

What was measured:
[1] = tested on: Staphylococcus aureus N.C.T.C. 6571; assay: hole-plate method, inhibition zones, S. aureus; type: cell-based; settings: inhibition zone diameter
Protocol: (§1) Various compounds illustrative of the compounds of the present invention were synthesised and tested for their bioactivity. Microbiological assays were performed by the hole-plate method with the test organism Staphylococcus aureus N.C.T.C. 6571 or E. coli X580. […] The diameters of the resultant inhibition zones were measured.

E. coli X580 = assay: hole-plate method, inhibition zones, E. coli; type: cell-based; settings: inhibition zone diameter
Protocol: as §1

E. Coli RNAP = E. Coli RNAP (Escherichia coli, UniProt P0A8T7+P0A8V2); assay: In vitro activity against E. Coli RNAP; type: biochemical; settings: read-out: RNA IC50
Description: (§2) These properties can be determined according to techniques that are well known in the art.

S. pneumonia UPPS = target: T1, S. pneumonia UPPS (Streptococcus pneumoniae serotype 4, UniProt Q97SR4); assay: In vitro activity against S. pneumonia UPPS; type: biochemical; settings: read-out: UPP IC50
T1 sequence (Q97SR4 1-252): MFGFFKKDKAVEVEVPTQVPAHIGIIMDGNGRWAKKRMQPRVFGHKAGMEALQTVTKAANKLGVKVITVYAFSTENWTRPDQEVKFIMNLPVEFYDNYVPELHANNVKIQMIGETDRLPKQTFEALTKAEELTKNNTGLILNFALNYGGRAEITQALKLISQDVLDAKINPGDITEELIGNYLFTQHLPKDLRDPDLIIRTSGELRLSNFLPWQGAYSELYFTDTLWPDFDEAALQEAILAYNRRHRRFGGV
Description: as §2

S. aureus membrane = assay: In vitro activity in depolarization of S. aureus membrane; type: cell-based; settings: read-out: DEP IC50
Description: as §2

[2] = tested on: mammalian_red blood cell membrane; assay: In vitro mammalian red blood cell membrane lysis activity; type: cell-based; settings: read-out: RBC IC50
Description: as §2

Candida albicans = assay: MIC determination (fungus), Candida albicans; type: cell-based
Protocol: MIC Determination (Fungus); MICs were determined for the antifungus by microdilution methods using RPMI 1640 medium buffered with morpholinopropanesulfonic acid (MOPS) and supplemented with L-glutamine as described by CLSI procedures (M27-A method) (Reference method for broth dilution antifungal susceptibility testing of yeasts; Approved standard—[…]. 2006, M27-A2, CLSI, Wayne Pa.).

[3] = tested on: human embryonic kidney 293 cells; assay: in vitro toxicities against human embryonic kidney 293 cells; type: cell-based
Description: as §2

[4] = tested on: human peripheral blood cells; assay: in vitro toxicities human peripheral blood cells; type: cell-based
Description: as §2

[5] = type: physicochemical; settings: pH 7.4
Description: as §2

[6] = tested on: S. aureus 1, ATCC13709 in vivo (methicillin sensitive); assay: MIC determination (bacteria), S1; type: cell-based
Protocol: (§3) MIC Determination (Bacteria);
(§4) MICs were determined based on Clinical and Laboratory Standards Institute (CLSI) methodology (Methods for dilution antimicrobial susceptibility tests for bacteria that grow aerobically; Approved Standard—seventh edition. 2006, M7-A7, CLSI, Wayne Pa.) by a 2-fold broth dilution technique in Mueller Hinton (pH7.4 Biorad). For S. pneumoniae, the medium was supplemented with 2.5% laked horse blood. For H. influenzae, the medium was haemophilus test medium (H.T.M.). Overnight cultures were diluted to obtain the final inoculum of 10^5 cfu/well. Incubation was 37° C. overnight in ambient air. The MIC was defined as the lowest concentration which inhibited all visual growth and expressed in μg/ml. For each bacterial species, all of the molecules were tested in the same experiment in order to give a head-to-head comparison.

[7] = tested on: S. aureus 26, ATCC25923 (vancomycin susceptible); assay: MIC determination (bacteria), S26; type: cell-based
Protocol: as §3, §4

S. aureus 4, Oxford = assay: MIC determination (bacteria), S4; type: cell-based
Protocol: as §3, §4

[8] = tested on: S. aureus 2, (MRSA in vivo); assay: MIC determination (bacteria), S2; type: cell-based
Protocol: as §3, §4

[9] = tested on: E. faecalis 1, ATCC29212 VanS (vancomycin susceptible); assay: MIC determination (bacteria), E1; type: cell-based
Protocol: as §3, §4

[10] = tested on: E. faecium 1, VanA (vancomycin resistant); assay: MIC determination (bacteria), E2; type: cell-based
Protocol: as §3, §4

[11] = tested on: S. pneumonia 1, ATCC49619 (erythromycin susceptible); assay: MIC determination (bacteria), P1; type: cell-based
Protocol: as §3, §4

[12] = tested on: S. pneumonia 9, (multi-drug resistant); assay: MIC determination (bacteria), P9 / P9B; type: cell-based; settings: for MIC P9: S. pneumonia 9, multi-drug resistant; for MIC P9B: S. pneumonia 9 in presence of 2.5% horse blood
Protocol: as §3, §4

[13] = tested on: H. influenzae 3, ATCC31517 MMSA; assay: MIC determination (bacteria), H3; type: cell-based
Protocol: as §3, §4

[14] = tested on: H. influenzae 4, LS2 Efflux ko; assay: MIC determination (bacteria), H4; type: cell-based
Protocol: as §3, §4

plasma protein = type: in vitro ADME
Description: as §2

Sequence of E. Coli RNAP (P0A8V2 whole entry): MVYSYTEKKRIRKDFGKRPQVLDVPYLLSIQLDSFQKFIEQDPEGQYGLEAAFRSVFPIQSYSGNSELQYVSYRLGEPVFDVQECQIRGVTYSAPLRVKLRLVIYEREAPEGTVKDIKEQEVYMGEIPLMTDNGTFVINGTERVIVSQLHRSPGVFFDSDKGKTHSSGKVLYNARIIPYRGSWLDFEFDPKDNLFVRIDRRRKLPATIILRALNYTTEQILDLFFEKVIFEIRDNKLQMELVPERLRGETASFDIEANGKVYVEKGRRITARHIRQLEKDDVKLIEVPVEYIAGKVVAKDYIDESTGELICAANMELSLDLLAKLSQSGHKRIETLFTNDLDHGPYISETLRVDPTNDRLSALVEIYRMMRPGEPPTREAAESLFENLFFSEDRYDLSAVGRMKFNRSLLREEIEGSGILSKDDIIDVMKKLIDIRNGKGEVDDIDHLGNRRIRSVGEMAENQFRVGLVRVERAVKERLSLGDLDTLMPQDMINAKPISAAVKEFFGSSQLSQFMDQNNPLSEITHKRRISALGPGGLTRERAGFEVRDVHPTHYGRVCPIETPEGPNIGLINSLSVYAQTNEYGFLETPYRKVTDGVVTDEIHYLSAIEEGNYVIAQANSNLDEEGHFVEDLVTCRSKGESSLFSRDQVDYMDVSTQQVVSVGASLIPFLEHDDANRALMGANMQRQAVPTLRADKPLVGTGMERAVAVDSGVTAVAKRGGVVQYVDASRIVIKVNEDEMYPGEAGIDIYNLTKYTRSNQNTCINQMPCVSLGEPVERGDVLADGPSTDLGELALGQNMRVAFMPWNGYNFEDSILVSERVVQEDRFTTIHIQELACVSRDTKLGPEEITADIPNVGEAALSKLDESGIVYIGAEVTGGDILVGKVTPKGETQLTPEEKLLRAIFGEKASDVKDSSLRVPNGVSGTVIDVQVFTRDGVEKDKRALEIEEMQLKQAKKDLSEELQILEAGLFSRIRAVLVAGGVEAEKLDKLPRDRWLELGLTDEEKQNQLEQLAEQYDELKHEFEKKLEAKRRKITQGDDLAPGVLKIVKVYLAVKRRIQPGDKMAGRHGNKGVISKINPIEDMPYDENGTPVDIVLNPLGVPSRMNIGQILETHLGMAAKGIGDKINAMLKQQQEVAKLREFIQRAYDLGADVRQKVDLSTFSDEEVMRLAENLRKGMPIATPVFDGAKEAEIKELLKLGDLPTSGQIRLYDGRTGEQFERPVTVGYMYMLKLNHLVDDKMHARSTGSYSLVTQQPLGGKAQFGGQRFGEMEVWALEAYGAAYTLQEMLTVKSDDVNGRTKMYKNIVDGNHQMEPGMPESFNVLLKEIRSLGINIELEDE
Sequence of E. Coli RNAP (P0A8T7 whole entry): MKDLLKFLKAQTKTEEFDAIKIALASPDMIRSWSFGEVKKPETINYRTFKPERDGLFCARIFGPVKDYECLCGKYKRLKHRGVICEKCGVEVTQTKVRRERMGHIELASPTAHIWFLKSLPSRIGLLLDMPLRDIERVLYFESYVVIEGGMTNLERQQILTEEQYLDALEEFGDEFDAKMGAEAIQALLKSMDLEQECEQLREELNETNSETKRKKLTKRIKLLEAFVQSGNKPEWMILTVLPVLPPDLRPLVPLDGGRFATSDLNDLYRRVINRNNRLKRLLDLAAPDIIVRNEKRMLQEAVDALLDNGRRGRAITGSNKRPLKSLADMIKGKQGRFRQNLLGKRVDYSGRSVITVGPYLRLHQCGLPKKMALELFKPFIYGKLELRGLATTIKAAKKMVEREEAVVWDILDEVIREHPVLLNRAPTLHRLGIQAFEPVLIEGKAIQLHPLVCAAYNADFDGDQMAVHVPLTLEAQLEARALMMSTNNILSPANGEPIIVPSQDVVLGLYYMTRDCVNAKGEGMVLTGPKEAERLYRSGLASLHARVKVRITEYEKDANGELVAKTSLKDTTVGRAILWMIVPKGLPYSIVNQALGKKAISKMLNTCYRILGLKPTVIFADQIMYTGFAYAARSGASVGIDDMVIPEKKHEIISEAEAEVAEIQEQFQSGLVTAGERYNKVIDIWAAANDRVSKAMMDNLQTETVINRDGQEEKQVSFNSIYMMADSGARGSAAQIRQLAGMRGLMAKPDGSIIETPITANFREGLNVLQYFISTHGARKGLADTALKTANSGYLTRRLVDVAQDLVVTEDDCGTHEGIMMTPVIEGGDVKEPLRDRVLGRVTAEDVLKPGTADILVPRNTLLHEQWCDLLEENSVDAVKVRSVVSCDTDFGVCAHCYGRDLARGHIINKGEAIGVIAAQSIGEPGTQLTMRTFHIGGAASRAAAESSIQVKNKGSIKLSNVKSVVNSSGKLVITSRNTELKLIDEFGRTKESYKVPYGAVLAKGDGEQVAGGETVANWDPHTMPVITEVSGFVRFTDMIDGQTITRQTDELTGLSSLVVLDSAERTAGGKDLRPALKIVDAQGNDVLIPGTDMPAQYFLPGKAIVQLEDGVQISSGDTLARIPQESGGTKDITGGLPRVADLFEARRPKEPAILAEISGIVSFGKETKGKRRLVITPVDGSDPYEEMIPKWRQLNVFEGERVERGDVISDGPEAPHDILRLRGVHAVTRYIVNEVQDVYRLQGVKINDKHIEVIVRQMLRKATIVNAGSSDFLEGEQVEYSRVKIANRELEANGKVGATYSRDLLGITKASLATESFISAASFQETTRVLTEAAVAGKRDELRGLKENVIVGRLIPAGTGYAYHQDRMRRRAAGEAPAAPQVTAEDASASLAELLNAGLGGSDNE
Sequence of E. Coli RNAP (P0A7Z4 whole entry partner): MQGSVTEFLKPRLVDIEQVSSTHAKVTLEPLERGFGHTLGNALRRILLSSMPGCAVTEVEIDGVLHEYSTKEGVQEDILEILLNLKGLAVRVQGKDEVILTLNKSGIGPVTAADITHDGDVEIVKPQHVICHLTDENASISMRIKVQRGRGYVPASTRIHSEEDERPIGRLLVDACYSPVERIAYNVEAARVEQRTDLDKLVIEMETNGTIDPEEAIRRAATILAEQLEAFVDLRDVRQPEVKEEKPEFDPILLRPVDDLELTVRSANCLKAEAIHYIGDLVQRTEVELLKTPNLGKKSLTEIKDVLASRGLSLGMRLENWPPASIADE
Sequence of E. Coli RNAP (P0A800 whole entry partner): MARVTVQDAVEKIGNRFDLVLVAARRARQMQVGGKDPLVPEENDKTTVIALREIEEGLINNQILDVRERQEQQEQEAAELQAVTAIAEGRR

SMILES: CCOC(=O)C1=C(O)C2CS[C@@H](c3ccc([N+](=O)[O-])cc3)N2C1=O (stereo partly shown)
- Bioactivity (mm) S. aureus (4 mg/ml) [1]: 16 mm

SMILES: CCOC(=O)CC(=O)N1C(c2ccc(F)cc2Cl)SC[C@@H]1C(=O)OC (stereo partly shown)
- Bioactivity (mm) E. coli (4 mg/ml) (E. coli X580; 4 mg/ml): 16 mm

SMILES: CCOC(=O)C1=C(O)C2CS[C@@H](c3ccc(F)cc3Cl)N2C1=O (stereo partly shown)
- Bioactivity (mm) S. aureus (4 mg/ml) [1]: 18 mm

SMILES: O=C(NC12CC3CC(CC(C3)C1)C2)C1=C(O)C2CS[C@@H](c3ccccc3)N2C1=O (stereo partly shown)
- Bioactivity (mm) S. aureus 0.01 mg/ml [1]: 22 mm
- Bioactivity (mm) E. coli 0.001 mg/ml (E. coli X580; 0.001 mg/ml): 15 mm
- Bioactivity (mm) E. coli 0.01 mg/ml (E. coli X580): 15 mm

SMILES: O=C(NC12CC3CC(CC(C3)C1)C2)C1=C(O)C2CS[C@@H](c3ccc(F)cc3)N2C1=O (stereo partly shown)
- Bioactivity (mm) S. aureus 0.001 mg/ml [1]: 21 mm
- Bioactivity (mm) S. aureus 0.01 mg/ml [1]: 27 mm
- Bioactivity (mm) E. coli 0.01 mg/ml (E. coli X580): 14 mm

SMILES: O=C(NC12CC3CC(CC(C3)C1)C2)C1=C(O)C2CS[C@@H](c3ccc([N+](=O)[O-])cc3)N2C1=O (stereo partly shown)
- Bioactivity (mm) S. aureus 0.001 mg/ml [1]: 19 mm
- Bioactivity (mm) S. aureus 0.01 mg/ml [1]: 25 mm
- Bioactivity (mm) E. coli 0.01 mg/ml (E. coli X580): 14 mm

SMILES: O=C(NC12CC3CC(CC(C3)C1)C2)C1=C(O)C2CS[C@@H](c3ccc(F)cc3Cl)N2C1=O (stereo partly shown)
- Bioactivity (mm) S. aureus 0.001 mg/ml [1]: 21 mm
- Bioactivity (mm) S. aureus 0.01 mg/ml [1]: 25 mm
- Bioactivity (mm) E. coli 0.01 mg/ml (E. coli X580): 14 mm

SMILES: CCOC(=O)C1=C(O)C2CSC(c3cccc(Br)c3)N2C1=O (stereo not shown)
- Bioactivity (mm) S. aureus (4 mg/ml) ([1]; Cm): 2.0 Cm

SMILES: CCOC(=O)C1=C(O)C2CSC(c3ccc(Br)cc3)N2C1=O (stereo not shown)
- Bioactivity (mm) S. aureus (4 mg/ml) ([1]; Cm): 1.7 Cm

SMILES: CCOC(=O)C1=C(O)C2CSC(c3ccc(CO[Si](C)(C)C(C)(C)C)cc3)N2C1=O (stereo not shown)
- Bioactivity (mm) S. aureus (4 mg/ml) ([1]; Cm): 2.3 Cm

SMILES: CC(C)(C)[Si](C)(C)OCc1ccc([C@@H]2SCC3C(O)=C(C(=O)NC45CC6CC(CC(C6)C4)C5)C(=O)N32)cc1 (stereo partly shown)
- Bioactivity (mm) S. aureus 0.25 mg/ml [1]: 12 mm
- Bioactivity (mm) S. aureus 0.5 mg/ml [1]: 13 mm

SMILES: Cc1cc(Cl)ccc1NC(=O)C1=C(O)C2CS[C@@H](c3ccc(Br)cc3)N2C1=O (stereo partly shown)
- Bioactivity (mm) S. aureus 0.25 mg/ml [1]: 25 mm
- Bioactivity (mm) S. aureus 0.5 mg/ml [1]: 26 mm

SMILES: CC(C)(C)C1OCC2(C)C(=O)C(C(=O)NC34CC5CC(CC(C5)C3)C4)C(=O)N12 (racemic) [(±)-2A]
- IC50 (E. Coli RNAP): 17 µM
- IC50 (S. pneumonia UPPS): 0.38 µM
- IC50 (S. aureus membrane): 10.8 µM
- IC50 [2]: > 100 µM
- CAN MIC (Candida albicans): >32 µg/mL
- HEK LD50 [3]: 30.3 µM
- PMB LD50 [4]: 30.3 µM
- SOL [5]: 75 to 150 µM
- MIC S1 [6]: 1 µg/mL (≈ 2.57 µM)
- MIC S26 [7]: 2 µg/mL (≈ 5.15 µM)
- MIC S4 (S. aureus 4, Oxford): 1 µg/mL (≈ 2.57 µM)
- MIC S2 [8]: 1 µg/mL (≈ 2.57 µM)
- MIC E1 [9]: 1 µg/mL (≈ 2.57 µM)
- MIC E2 [10]: 1 µg/mL (≈ 2.57 µM)
- MIC P1 [11]: 1 µg/mL (≈ 2.57 µM)
- MIC P9 [12]: 1 µg/mL (≈ 2.57 µM)
- MIC P9B [12]: 1 µg/mL
- MIC H3 [13]: 2 µg/mL (≈ 5.15 µM)
- MIC H4 [14]: 1 µg/mL (≈ 2.57 µM)

SMILES: CC(C)(C)C1OCC2(C)C(O)=C(C(=O)NCC3CCCCC3)C(=O)N12 (racemic) [(±)-2E]
- IC50 (E. Coli RNAP): 31 µM
- IC50 (S. pneumonia UPPS): 0.68 µM
- IC50 (S. aureus membrane): 84.3 µM
- IC50 [2]: > 100 µM
- CAN MIC (Candida albicans): >32 µg/mL
- HEK LD50 [3]: 90.9 µM
- PMB LD50 [4]: 90.9 µM
- SOL [5]: >300 µM
- PPB (plasma protein): 96.6%
- MIC S1 [6]: 4 µg/mL (≈ 11.4 µM)
- MIC S26 [7]: 4 µg/mL (≈ 11.4 µM)
- MIC S4 (S. aureus 4, Oxford): 4 µg/mL (≈ 11.4 µM)
- MIC S2 [8]: 2 µg/mL (≈ 5.71 µM)
- MIC E1 [9]: 2 µg/mL (≈ 5.71 µM)
- MIC E2 [10]: 1 µg/mL (≈ 2.85 µM)
- MIC P1 [11]: 2 µg/mL (≈ 5.71 µM)
- MIC P9 [12]: 1 µg/mL (≈ 2.85 µM)
- MIC P9B [12]: 1 µg/mL
- MIC H3 [13]: 4 µg/mL (≈ 11.4 µM)
- MIC H4 [14]: 0.12 µg/mL (≈ 0.342 µM)

SMILES: CCOC(=O)C12C(=O)C(=C(O)CC34CC5CC(C)(CC(C)(C5)C3)C4)C(=O)N1C(C(C)(C)C)OC2C (racemic) [Compound 6C]
- IC50 (E. Coli RNAP): 4 µM
- IC50 (S. pneumonia UPPS): 3.2 µM
- IC50 (S. aureus membrane): > 100 µM
- IC50 [2]: > 100 µM
- CAN MIC (Candida albicans): >32 µg/mL
- HEK LD50 [3]: 90.9 µM
- PMB LD50 [4]: >90.9 µM
- SOL [5]: >300 µM
- PPB (plasma protein): 99.8%
- MIC S1 [6]: 2 µg/mL (≈ 4.1 µM)
- MIC S26 [7]: 2 µg/mL (≈ 4.1 µM)
- MIC S4 (S. aureus 4, Oxford): 2 µg/mL (≈ 4.1 µM)
- MIC S2 [8]: 1 µg/mL (≈ 2.05 µM)
- MIC E1 [9]: 2 µg/mL (≈ 4.1 µM)
- MIC E2 [10]: 1 µg/mL (≈ 2.05 µM)
- MIC P1 [11]: 0.5 µg/mL (≈ 1.03 µM)
- MIC P9 [12]: 0.5 µg/mL (≈ 1.03 µM)
- MIC P9B [12]: 1 µg/mL
- MIC H3 [13]: 64 µg/mL (≈ 131 µM)
- MIC H4 [14]: 0.25 µg/mL (≈ 0.513 µM)

SMILES: CCOC(=O)C12C(=O)C(=C(O)CC(C)(C)CC(=O)OCCC34CC5CC(CC(C5)C3)C4)C(=O)N1C(C(C)(C)C)OC2C (racemic) [Compound 6G]
- IC50 (E. Coli RNAP): 2.4 µM
- IC50 (S. pneumonia UPPS): 1.9 µM
- IC50 (S. aureus membrane): > 100 µM
- IC50 [2]: > 100 µM
- CAN MIC (Candida albicans): >32 µg/mL
- HEK LD50 [3]: 10.1 µM
- PMB LD50 [4]: >90.9 µM
- SOL [5]: >300 µM
- MIC S1 [6]: 0.5 µg/mL (≈ 0.851 µM)
- MIC S26 [7]: 1 µg/mL (≈ 1.7 µM)
- MIC S4 (S. aureus 4, Oxford): 1 µg/mL (≈ 1.7 µM)
- MIC S2 [8]: 0.5 µg/mL (≈ 0.851 µM)
- MIC E1 [9]: 1 µg/mL (≈ 1.7 µM)
- MIC E2 [10]: 0.5 µg/mL (≈ 0.851 µM)
- MIC P1 [11]: 2 µg/mL (≈ 3.4 µM)
- MIC P9 [12]: 1 µg/mL (≈ 1.7 µM)
- MIC P9B [12]: 4 µg/mL
- MIC H3 [13]: >64 µg/mL
- MIC H4 [14]: 2 µg/mL (≈ 3.4 µM)
